Laboratory results from US5981559A, “Azole derivative with leukotriene (LTs) antagonizing activity and thromboxane (TX) A2 antagonizing activity” (Yamanouchi Pharmaceutical Co., Ltd., priority 1994, dated 1999).

Tests used:
[1] = system: ileal contraction by LTD4; assay: Inhibition of ileal contraction by LTD4 in guinea pig (Test (2)); set-up: species or system guinea pig (male Hartley); conditions: guinea pig ileum, LTD4 10^-9 M; compound incubation 20 minutes
Experimental: (2) Test Method for the Inhibition of Ileal Contraction by LTD4 in Guinea Pig
A male Hartley guinea pig of 500 to 700 g in body weight was sacrificed by head blow. The ileum was set in a Magnus vessel containing 10 ml of Tyrode solution aerated with a 95% O2 +5% CO2 mixture gas at a tension of 1.0 g. The tension generated by the tissue was isometrically measured using a threton gage transducer. Ileal contraction reaction against LTD4 (10^-9 M) was measured in the absence of the compound and then in the presence of the test compound in varied concentrations. Incubation time of the compound was set to 20 minutes.

[2] = system: platelet aggregation induced by U-46619 (stable analog of TXA2); assay: Inhibition of platelet aggregation induced by U-46619 (Test (1)); type: cell-based, guinea pig (male Hartley); conditions: Cavia porcellus; guinea pig PRP, platelet count 500,000/μl; compound added 2 minutes before U-46619
Experimental: (1) Test Method for the Inhibition of Platelet Aggregation Induced by U-46619
Using a plastic syringe containing 1 volume of 3.8% sodium citrate aqueous solution, 9 volumes of blood was collected from the abdominal aorta of a male Hartley guinea pig of about 800 g in body weight. Platelet rich plasma (PRP) was obtained by subjecting the blood to 10 minutes of centrifugation at 270×g, and the remaining blood was further centrifuged at 1,100×g for 10 minutes to give platelet poor plasma (PPP). The PRP was diluted with PPP to control the platelet count to 500,000/μl, and platelet aggregation by a stable analog of TXA2, U-46619 (a chemical name: 9,11-dideoxy-9α,11α-methanoepoxy-prostaglandin F2 α), was measured in accordance with the method of Bone and Cross (Journal of Physiology, vol.168, pp.178-195, 1963).
That is, changes in the light transmittance of PRP by U-46619 (10^-6 […]) was measured using NBS Hematracer. The compound was added 2 minutes before the addition of U-46619, and the IC50 value (50% inhibition concentration) was calculated from the inhibition ratio based on the maximum light transmittance by U-46619.

[3] = system: U-46619 induced airway resistance increase; assay: Inhibition of U-46619 induced airway resistance increase in guinea pig by oral administration (Test (3)); type: in vivo, guinea pig (male Hartley); conditions: 10 mg/kg oral, 1 hour before U-46619 (3 μg/kg i.v.)
Experimental: (3) Test Method for the Inhibition of U-46619 Induced Airway Resistance Increase in Guinea Pig by Oral Administration of Compounds
A male Hartley guinea pig (500 to 800 g) was anesthetized with urethane (1.2 g/kg, i.p.) and fixed on the back to insert a tracheal cannula. Spontaneous respiration was stopped with gallamine (1 mg/kg, i.v.) and artificial respiration was carried out at a rate of 60 strokes/min, volume 1 ml/100 g body weight/cycle. After total jugular intravenous administration of U-46619 (3 μg/kg), the increasing airway resistance was measured by a respiration function measuring apparatus (Model 6, Buxco Electronics Inc.). In this case, test compound was orally administered 1 hour before the administration of U-46619, as a dimethyl sulfoxide solution or as a methyl cellulose suspension.
The results were calculated as the inhibition ratio of airway resistance at the time of the administration of 10 mg/kg of the compound.

[4] = system: LTD4-induced vascular permeability acceleration; assay: Inhibition of LTD4-induced vascular permeability acceleration by oral administration (Test (4)); type: in vivo, guinea pig (male Hartley); conditions: 10 mg/kg oral, 1 hour before LTD4 (5 ng/site intracutaneous); dimethyl sulfoxide solution (DMSO)
Experimental: (4) Test Method for the Inhibition of LTD4 -Induced Vascular Permeability Acceleration by Oral Administration of Compounds
A male Hartley guinea pig whose dorsal hair had been cut on the day before the test was subjected to intravenous administration of 1% Evans blue aqueous solution (1 ml/animal). Two minutes thereafter, LTD4 (5 ng/site) was administered inside the dorsal skin of the guinea pig, and the guinea pig was sacrificed by decapitation 30 minutes thereafter. The skin where intracutaneous injection of LTD4 was carried out was collected, and the pigment leaked into the skin was extracted. Amount of the leaked pigment was calculated by measuring its absorbance at 620 nm and used as the index of vascular permeability. The test compound was orally administered as a dimethyl sulfoxide solution 1 hour before the intracutaneous administration of LTD4. The results were calculated as the inhibition ratio at the time of the administration of 10 mg/kg of the compound.

[5] = dimethyl sulfoxide solution (DMSO)

Row | Compound | IC50 [1] | IC50 [2] | Test (3) Inhibition ratio [3, 5] | Test (3) Inhibition ratio ([3]; methyl cellulose suspension (MC)) | Test (4) Inhibition ratio [4]
1 | CC(C)(C)c1csc(CCc2cccc(C(=O)Nc3cc(CCCS(=O)(=O)c4ccc(Cl)cc4)ccc3OCC(=O)O)c2)n1 [Example 28, 2-[3-[2-(4-tert-Butyl-2-thiazolyl)ethyl]benzoylamino]-4-[3-(4-chlorophenylsulfonyl)propyl]phenoxyacetic acid] | 0.98 nM | 74 nM | – | – | –
2 | CC(C)(C)c1csc(COc2cccc(C(=O)Nc3cc(CCCS(=O)(=O)c4ccc(Cl)cc4)ccc3OC(F)C(=O)O)c2)n1 (centres unmarked) [Example 79, 2-[2-[3-[(4-tert-butyl-2-thiazolyl)methoxy]benzoylamino]-4-[3-(4-chlorophenylsulfonyl)propyl]phenoxy]-2-fluoroacetic acid hydrate] | 4.2 nM | 890 nM | – | – | –
3 | O=C(Nc1cc(CCCS(=O)(=O)c2ccc(Cl)cc2)ccc1OCc1nnn[nH]1)c1cccc(OCc2nc(C3CCC3)cs2)c1 [Example 74, 5'-[3-(4-Chlorophenylsulfonyl)propyl]-3-[(4-cyclobutyl-2-thiazolyl)methoxy]-2'-(1H-tetrazol-5-ylmethoxy)benzanilide] | 0.24 nM | 540 nM | – | – | –
4 | O=C(O)COc1ccc(CCCS(=O)(=O)c2ccc(Cl)cc2)cc1NC(=O)c1cccc(OCc2ccc3ccccc3n2)c1 [Comparative compound] | – | – | 27% | 21% | 35%
5 | CCOC(=O)COc1ccc(CCCS(=O)(=O)c2ccc(Cl)cc2)cc1NC(=O)c1cccc(OCc2nc(C3CC3)cs2)c1 [Example 15, Ethyl 4-[3-(4-chlorophenylsulfonyl)propyl]-2-[3-[(4-cyclopropyl-2-thiazolyl]methoxy]benzoylamino]phenoxyacetate] | 0.85 nM | 63 nM | – | – | –
6 | CC(C)(C)c1csc(CSc2cccc(C(=O)Nc3cc(CCCS(=O)(=O)c4ccc(Cl)cc4)ccc3OCC(=O)O)c2)n1 [Example 27, 2-[3-[(4-tert-Butyl-2-thiazolyl)methylthio]benzoylamino]-4-[3-(4-chlorophenylsulfonyl)propyl]phenoxyacetic acid] | 0.67 nM | 210 nM | – | – | –
7 | O=C(O)CNC(=O)COc1ccc(CCCS(=O)(=O)c2ccc(Cl)cc2)cc1NC(=O)c1cccc(OCc2nc3ccccc3s2)c1 [Example 106, N-[[2-[3-(2-Benzothiazolylmethoxy)benzoylamino]-4-[3-(4-chlorophenylsulfonyl)propyl]phenoxy]acetyl]glycine] | 0.92 nM | 1200 nM | – | – | –
8 | O=C(O)COc1ccc(CCCS(=O)(=O)c2ccc(Cl)cc2)cc1NC(=O)c1cccc(OCc2nc(C3CC3)cs2)c1 [Example 26, 4-[3-(4-Chlorophenylsulfonyl)propyl]-2-[3-[(4-cyclopropyl-2-thiazolyl)methoxy]benzoylamino]phenoxyacetic acid] | 0.54 nM | 79 nM | – | – | –

More lines, in order of falling IC50 [1], values ahead:

Row | IC50 [1] | IC50 [2] | Compound | Test (3) Inhibition ratio [3, 5] | Test (3) Inhibition ratio ([3]; methyl cellulose suspension (MC)) | Test (4) Inhibition ratio [4]
9 | 3.7 nM | 670 nM | CS(=O)(=O)NC(=O)COc1ccc(CCCS(=O)(=O)c2ccc(Cl)cc2)cc1NC(=O)c1cccc(OCc2nc3ccccc3s2)c1 [Example 107, 2-[2-[3-(2-benzothiazolylmethoxy)benzoylamino]-4-[3-(4-chlorophenylsulfonyl)propyl]phenoxy]-N-(methanesulfonyl)acetamide 0.5 hydrate] | – | – | –
10 | 0.93 nM | 420 nM | Cc1oc(=O)oc1COC(=O)COc1ccc(CCCS(=O)(=O)c2ccc(Cl)cc2)cc1NC(=O)c1cccc(OCc2nc(C(C)(C)C)cs2)c1 [Example 42, (5-methyl-2-oxo-1,3-dioxol-4-yl)methyl=2-[3-[(4-tert-butyl-2-thiazolyl)methoxy]benzoylamino]-4-[3-(4-chlorophenylsulfonyl)propyl]phenoxyacetic acid] | – | – | –
11 | 0.81 nM | 450 nM | CCOC(=O)COc1ccc(CCCS(=O)(=O)c2ccc(Cl)cc2)cc1NC(=O)c1cccc(OCc2nc(C(C)(C)C)cs2)c1 [Example 6, Ethyl 2-[3-[(4-tert-butyl-2-thiazolyl)methoxy]benzoylamino]-4-[3-(4-chlorophenylsulfonyl)propyl]phenoxyacetate] | – | – | –
12 | 0.61 nM | 110 nM | O=C(O)COc1ccc(CCCS(=O)(=O)c2ccc(Cl)cc2)cc1NC(=O)c1cccc(OCc2nc(C3CCCCC3)cs2)c1 [Example 29, 4-[3-(4-Chlorophenylsulfonyl)propyl]-2-[3-[(4-cyclohexyl-2-thiazolyl)methoxy]benzoylamino]phenoxyacetic acid] | – | – | –
13 | 0.57 nM | 220 nM | CC(C)(C)c1csc(COc2cccc(C(=O)Nc3cc(CCCS(=O)(=O)c4ccc(Cl)cc4)ccc3OCc3nnn[nH]3)c2)n1 [Example 39, 3-[(4-tert-Butyl-2-thiazolyl)methoxy]-5'-[3-(4-chlorophenylsulfonyl)propyl]-2'-(1H-tetrazol-5-ylmethoxy)benzanilide] | – | – | –
14 | 0.45 nM | 55 nM | CC(C)(C)c1csc(COc2cccc(C(=O)Nc3cc(CCCS(=O)(=O)c4ccc(Cl)cc4)ccc3OCC(=O)O)c2)n1 [Example 13, 2-[3-[(4-tert-Butyl-2-thiazolyl)methoxy]benzoylamino]-4-[3-(4-chlorophenylsulfonyl)propyl]phenoxyacetic acid] | – | – | –
15 | 0.28 nM | 130 nM | O=C(O)COc1ccc(CCCS(=O)(=O)c2ccc(Cl)cc2)cc1NC(=O)c1cccc(OCc2nc(C3CCC3)cs2)c1 [Example 31, 4-[3-(4-Chlorophenylsulfonyl)propyl]-2-[3-[(4-cyclobutyl-2-thiazolyl)methoxy]benzoylamino]phenoxyacetic acid] | 72% | – | 40%
16 | 0.26 nM | 380 nM | O=C(Nc1cc(CCCS(=O)(=O)c2ccc(Cl)cc2)ccc1OCc1nnn[nH]1)c1cccc(OCc2nc3ccccc3s2)c1 [Example 111, 3-(2-benzothiazolylmethoxy)-5'-[3-(4-chlorophenylsulfonyl)propyl]-2'-(1H-tetrazol-5-ylmethoxy)benzanilide] | – | – | –
